{
  "source": "patent US11963995B2",
  "about": "“Methods comprising desmopressin” (Ferring B.V., priority 2008, dated 2024)",
  "system": "adult patients with nocturia",
  "test": "Number of nocturnal voids, change from baseline to Day 28 (Study CS29 Part I)",
  "type": "in vivo, human",
  "details": "for fewer nocturnal urinary voids per night compared to baseline before treatment (median): Day 28; for Change from baseline to final visit (Day 28) of nocturnal voids, mean / Change from baseline to final visit (Day 28) of nocturnal voids, median: ITT, Part I; for minimum effective dose (MED): primary endpoint nocturnal voids",
  "protocol": "The term “nocturnal void” as used herein refers to a void occurring from 5 minutes after bedtime until rising in the morning with the intention of getting up.\nAll treatments were administered orally once per night approximately 1 hour prior to bedtime; subjects were instructed to limit their fluid intake prior to drug self-administration. […] Randomization was to be stratified by age (<65, ≥65 years) and by the absence/presence of nocturnal polyuria, defined as a ratio of nighttime urine volume/24-hour urine volume 33%. To achieve the desired number of subjects within each stratum, enrollment of subjects in a particular stratum (age and/or presence/absence of nocturnal polyuria) could be halted. If this was necessary, all investigative sites were to be informed in writing at least 1 week in advance to stop screening in a population of subjects.\nA total of 750 subjects were planned to be enrolled, with approximately 150 subjects per treatment group. Part I of the study was conducted in 7 visits. Screening (Visit 1) occurred within 21 days of dosing (Day 1, Visit 2); subjects returned for follow-up visits on Days 4, 8, 15, 22, and 28 (end of Part I). Duration of treatment in Part I was 28 days.\nSubjects who met the following inclusion criteria were eligible for the study: provided written informed consent prior to the performance of any study-related activity, defined as any procedure that would not have been performed during the normal management of the subject; and was a male or female subject, 18 years of age and older, with an average of ≥2 nocturnal voids per night determined via a 3-day frequency-volume chart during the screening period\nAll treatments were administered orally once per night approximately 1 hour prior to bedtime. Subjects were instructed to place the tablet under their tongue, without water. Subjects were provided with sufficient study drug for the duration of Part I.\nThe primary endpoints for efficacy assessment were: (1) change in mean number of nocturnal voids from baseline evaluation to final visit (Day 28); and (2) proportion of subjects with >33% reduction in the mean number of nocturnal voids from baseline to final visit (Day 28). A further description and corresponding data directed to the second primary endpoint (i.e., portion of subjects with >33% reduction in the mean number of nocturnal voids) are not provided herein.\nOf the 799 randomized subjects in Part I, 757 subjects who received at least 1 dose of study drug and had follow-up data were included in the intent to treat (ITT) analysis dataset. […] All 799 randomized subjects received at least 1 dose of study drug (desmopressin or placebo) and had at least 1 safety assessment and, therefore, were included in the safety analysis dataset.\nMissing values concerning number of nocturnal voids at Day 8, Day 15, Day 22, and Day 28 in Part I were imputed using last observation carried forward (LOCF). Missing values concerning sleep disturbance and urine volume (for average 24-hour urine volume and average nocturnal urine volume) were not imputed.",
  "key": {"[1]": {"details": "10 ug, all males with monitoring"}, "[2]": {"details": "10 ug, females over 50 years of age"}, "[3]": {"details": "10 ug, females over 65 years of age"}, "[4]": {"details": "25 ug, all males with monitoring"}, "[5]": {"details": "25 ug, females over 50 years of age"}, "[6]": {"details": "25 ug, females over 65 years of age"}, "[7]": {"details": "50 ug, all males with monitoring"}, "[8]": {"details": "50 ug, females over 50 years of age"}, "[9]": {"details": "50 ug, females over 65 years of age"}, "[10]": {"details": "100 ug, all males with monitoring"}, "[11]": {"details": "100 ug, females over 50 years of age"}, "[12]": {"details": "100 ug, females over 65 years of age"}},
  "data": [
    {"smiles": "NC(=O)CC[C@@H]1NC(=O)[C@H](Cc2ccccc2)NC(=O)[C@H](Cc2ccc(O)cc2)NC(=O)CCSSC[C@@H](C(=O)N2CCC[C@H]2C(=O)N[C@H](CCCN=C(N)N)C(=O)NCC(N)=O)NC(=O)[C@H](CC(N)=O)NC1=O", "note": "[desmopressin]", "values": [
      {"measurement": "fewer nocturnal urinary voids per night compared to baseline before treatment (median)", "setting": "10 μg, all females", "result": "at least 1.0 voids per night"},
      {"measurement": "Change from baseline to final visit (Day 28) of nocturnal voids, mean", "setting": "10 ug, all females", "result": "−1.15"},
      {"measurement": "Change from baseline to final visit (Day 28) of nocturnal voids, median", "setting": "10 ug, all females", "result": "−1.00"},
      {"measurement": "Change from baseline to final visit (Day 28) of nocturnal voids, mean", "setting": "10 ug, all groups", "result": "−0.83"},
      {"measurement": "Change from baseline to final visit (Day 28) of nocturnal voids, median", "setting": "10 ug, all groups", "result": "−0.67"},
      {"measurement": "Change from baseline to final visit (Day 28) of nocturnal voids, mean", "setting": "[1]", "result": "−0.66"},
      {"measurement": "Change from baseline to final visit (Day 28) of nocturnal voids, median", "setting": "[1]", "result": "−0.67"},
      {"measurement": "Change from baseline to final visit (Day 28) of nocturnal voids, mean", "setting": "10 ug, all males", "result": "−0.54"},
      {"measurement": "Change from baseline to final visit (Day 28) of nocturnal voids, median", "setting": "10 ug, all males", "result": "−0.67"},
      {"measurement": "fewer nocturnal urinary voids per night compared to baseline before treatment (median)", "setting": "10 μg, females over 50 years of age", "result": "at least 1.0 voids per night"},
      {"measurement": "Change from baseline to final visit (Day 28) of nocturnal voids, mean", "setting": "[2]", "result": "−1.08"},
      {"measurement": "Change from baseline to final visit (Day 28) of nocturnal voids, median", "setting": "[2]", "result": "−1.00"},
      {"measurement": "Change from baseline to final visit (Day 28) of nocturnal voids, mean", "setting": "[3]", "result": "−0.93"},
      {"measurement": "Change from baseline to final visit (Day 28) of nocturnal voids, median", "setting": "[3]", "result": "−0.67"},
      {"measurement": "fewer nocturnal urinary voids per night compared to baseline before treatment (median)", "setting": "25 μg, all females", "result": "at least 1.0 voids per night"},
      {"measurement": "Change from baseline to final visit (Day 28) of nocturnal voids, mean", "setting": "25 ug, all females", "result": "−1.22"},
      {"measurement": "Change from baseline to final visit (Day 28) of nocturnal voids, median", "setting": "25 ug, all females", "result": "−1.33"},
      {"measurement": "Change from baseline to final visit (Day 28) of nocturnal voids, mean", "setting": "25 ug, all groups", "result": "−1.00"},
      {"measurement": "Change from baseline to final visit (Day 28) of nocturnal voids, median", "setting": "25 ug, all groups", "result": "−1.00"},
      {"measurement": "Change from baseline to final visit (Day 28) of nocturnal voids, mean", "setting": "[4]", "result": "−0.91"},
      {"measurement": "Change from baseline to final visit (Day 28) of nocturnal voids, median", "setting": "[4]", "result": "−0.67"},
      {"measurement": "Change from baseline to final visit (Day 28) of nocturnal voids, mean", "setting": "25 ug, all males", "result": "−0.83"},
      {"measurement": "Change from baseline to final visit (Day 28) of nocturnal voids, median", "setting": "25 ug, all males", "result": "−0.67"},
      {"measurement": "fewer nocturnal urinary voids per night compared to baseline before treatment (median)", "setting": "25 μg, females over 50 years of age", "result": "at least 1.0 voids per night"},
      {"measurement": "Change from baseline to final visit (Day 28) of nocturnal voids, mean", "setting": "[5]", "result": "−1.35"},
      {"measurement": "Change from baseline to final visit (Day 28) of nocturnal voids, median", "setting": "[5]", "result": "−1.33"},
      {"measurement": "fewer nocturnal urinary voids per night compared to baseline before treatment (median)", "setting": "25 μg, females over 65 years of age", "result": "at least 1.67 voids per night"},
      {"measurement": "Change from baseline to final visit (Day 28) of nocturnal voids, mean", "setting": "[6]", "result": "−1.27"},
      {"measurement": "Change from baseline to final visit (Day 28) of nocturnal voids, median", "setting": "[6]", "result": "−1.67"},
      {"measurement": "proportion of subjects with >75% reductions in the mean number of nocturnal voids", "setting": "50 μg, Day 28 (placebo 5%)", "result": 10, "unit": "%"},
      {"measurement": "proportion of subjects with >50% reductions in the mean number of nocturnal voids", "setting": "50 μg, Day 28 (placebo 20%)", "result": 28, "unit": "%"},
      {"measurement": "proportion of subjects with >33% reductions in the mean number of nocturnal voids", "setting": "50 μg, Day 28 (placebo 47%)", "result": 53, "unit": "%"},
      {"measurement": "Change from baseline to final visit (Day 28) of nocturnal voids, mean", "setting": "50 ug, all females", "result": "−1.23"},
      {"measurement": "Change from baseline to final visit (Day 28) of nocturnal voids, median", "setting": "50 ug, all females", "result": "−1.00"},
      {"measurement": "Change from baseline to final visit (Day 28) of nocturnal voids, mean", "setting": "50 ug, all groups", "result": "−1.18"},
      {"measurement": "Change from baseline to final visit (Day 28) of nocturnal voids, median", "setting": "50 ug, all groups", "result": "−1.00"},
      {"measurement": "Change from baseline to final visit (Day 28) of nocturnal voids, mean", "setting": "[7]", "result": "−1.09"},
      {"measurement": "Change from baseline to final visit (Day 28) of nocturnal voids, median", "setting": "[7]", "result": "−1.00"},
      {"measurement": "Change from baseline to final visit (Day 28) of nocturnal voids, mean", "setting": "50 ug, all males", "result": "−1.13"},
      {"measurement": "Change from baseline to final visit (Day 28) of nocturnal voids, median", "setting": "50 ug, all males", "result": "−1.00"},
      {"measurement": "Change from baseline to final visit (Day 28) of nocturnal voids, mean", "setting": "[8]", "result": "−1.15"},
      {"measurement": "Change from baseline to final visit (Day 28) of nocturnal voids, median", "setting": "[8]", "result": "−1.00"},
      {"measurement": "Change from baseline to final visit (Day 28) of nocturnal voids, mean", "setting": "[9]", "result": "−0.97"},
      {"measurement": "Change from baseline to final visit (Day 28) of nocturnal voids, median", "setting": "[9]", "result": "−1.00"},
      {"measurement": "Change from baseline to final visit (Day 28) of nocturnal voids, mean", "setting": "100 ug, all females", "result": "−1.51"},
      {"measurement": "Change from baseline to final visit (Day 28) of nocturnal voids, median", "setting": "100 ug, all females", "result": "−1.33"},
      {"measurement": "Change from baseline to final visit (Day 28) of nocturnal voids, mean", "setting": "100 ug, all groups", "result": "−1.43"},
      {"measurement": "Change from baseline to final visit (Day 28) of nocturnal voids, median", "setting": "100 ug, all groups", "result": "−1.33"},
      {"measurement": "Change from baseline to final visit (Day 28) of nocturnal voids, mean", "setting": "[10]", "result": "−1.41"},
      {"measurement": "Change from baseline to final visit (Day 28) of nocturnal voids, median", "setting": "[10]", "result": "−1.67"},
      {"measurement": "Change from baseline to final visit (Day 28) of nocturnal voids, mean", "setting": "100 ug, all males", "result": "−1.38"},
      {"measurement": "Change from baseline to final visit (Day 28) of nocturnal voids, median", "setting": "100 ug, all males", "result": "−1.33"},
      {"measurement": "Change from baseline to final visit (Day 28) of nocturnal voids, mean", "setting": "[11]", "result": "−1.44"},
      {"measurement": "Change from baseline to final visit (Day 28) of nocturnal voids, median", "setting": "[11]", "result": "−1.33"},
      {"measurement": "Change from baseline to final visit (Day 28) of nocturnal voids, mean", "setting": "[12]", "result": "−1.00"},
      {"measurement": "Change from baseline to final visit (Day 28) of nocturnal voids, median", "setting": "[12]", "result": "−1.00"},
      {"measurement": "minimum effective dose (MED)", "setting": "females", "result": 25, "unit": "µg"},
      {"measurement": "minimum effective dose (MED)", "setting": "males", "result": 100, "unit": "µg"}
    ]}
  ]
}
